Columns and labels:
COX-2 = target: T1, COX-2 (Ovis aries, UniProt P79208); details: cited from earlier work
T1 sequence (P79208 17-603): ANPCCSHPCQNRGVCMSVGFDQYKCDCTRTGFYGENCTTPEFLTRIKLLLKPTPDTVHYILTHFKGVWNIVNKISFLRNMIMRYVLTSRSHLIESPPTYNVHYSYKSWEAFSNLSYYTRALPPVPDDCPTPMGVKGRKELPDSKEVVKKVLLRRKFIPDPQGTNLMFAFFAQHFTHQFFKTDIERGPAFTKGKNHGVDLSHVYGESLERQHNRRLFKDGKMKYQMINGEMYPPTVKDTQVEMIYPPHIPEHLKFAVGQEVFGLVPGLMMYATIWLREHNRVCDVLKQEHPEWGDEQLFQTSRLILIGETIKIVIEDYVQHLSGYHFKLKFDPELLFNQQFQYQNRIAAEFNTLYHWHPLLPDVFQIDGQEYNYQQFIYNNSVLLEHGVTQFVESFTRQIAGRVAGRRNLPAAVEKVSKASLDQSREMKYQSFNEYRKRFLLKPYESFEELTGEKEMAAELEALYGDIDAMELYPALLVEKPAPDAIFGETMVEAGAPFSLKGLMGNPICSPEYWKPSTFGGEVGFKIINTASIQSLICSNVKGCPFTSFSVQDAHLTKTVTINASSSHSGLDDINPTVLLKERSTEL

MyD88(CA) = assay: NFκB reporter in 293T cells transfected with constitutively active MyD88; assay type: cell-based, human
Text: Plasmids and DNA Constructs—All plasmids and constructs were obtained or made as reported in either S. H. Rhee and D. Hwang, “Murine TOLL-like receptor 4 confers lipopolysaccaride responsiveness as determined by activation of NFκB and expression of the inducible cyclooxygenase,” Journal of Biological Chemistry, vol. 275, pp. 34035-34040 (2000); and J. Y. Lee et al., “Saturated fatty acids, but not unsaturated fatty acids, induce the expression of cyclooxygenase-2 mediated through TOLL-like receptor 4,” Journal of Biological Chemistry, vol. 276, pp. 16683-16689 (2001). Briefly, the luciferase reporter plasmids (pGL2) containing the promoter region of the murine COX-2 gene (−3201/+93 or −1017/+93) were provided by David Dewitt (Michigan State University, East Lansing, Mich.). To prepare the wild-type COX-2 promoter fragment, polymerase chain reaction (PCR) was performed with the primers named Kpn-COX2-For and Hind-COX2-Rev using the murine COX-2 (−1017/+93) luciferase reporter plasmid as a template. To prepare the mutant COX-2 promoter fragment containing mutated NFκB site, Kpn-COX2-Fmut and Hind-COX2-Rev were used as primers. Each PCR fragment was inserted into the KpnI and HindIII sites of pGL2 to generate the wild-type or mutant COX-2 (−410/+86) luciferase reporter constructs, respectively. Sequences for wild-type NFκB site and the primers were used as reported elsewhere. […]

COX-2 expression [1] = assay: COX-2 immunoblot in TNFα-treated HT-29 colon cancer cells; assay type: cell-based, human; details: pretreated 3 hours, TNFα 20 ng/ml 8 hours
Protocol: (§1) Cell culture—RAW 264.7 cells (a murine macrophage-like cell line, ATCC TIB-71), 293T cells (a human embryonic kidney cell line, provided by Sam Lee, Beth Israel Hospital. Boston, Mass.), and HT-29 cells (a human colon adenocarcinoma cell line, ATCC HTB-38) were cultured in Dulbecco's modified Eagle's medium (DMEM) containing 10% (v/v) heat-inactivated fetal bovine serum (FBS, Intergen) and 100 units/ml Penicillin and […] Streptomycin (GIBCO-BRL) at 37° C. in a 5% CO2/air environment. Cells (2×10^6) were plated in 60-mm dishes and cultured for an additional 18 hours to allow the number of cells to approximately double. Cells were maintained in serum-poor (0.25% FBS) medium for another 18 hours prior to the treatment with indicated reagents.
Sodium dodecyl sulfate-polyacrylamide gel electrophoresis (SDS-PAGE) and immunoblotting—These procedures were performed as previously described in D. Hwang et al., “Expression of mitogen-inducible cyclooxygenase induced by lipopolysaccharide: mediation through both mitogen-activated protein kinase and NF-kappaB signaling pathways in macrophages,” Biochem. Pharmacol., vol. 54, pp. 87-96 (1997). […]
Colon cancer cells (HT-29) were pretested with various concentrations of docosahexaenoic acid (C22:6n-3) for 3 hours and then treated with TNFα (20 ng/ml) for 8 hours. Cell lysates were analyzed by COX-2 and GAPDH immunoblot.

COX-2 expression [2] = assay: COX-2 immunoblot (Western blot) in RAW 264.7 cells; assay type: cell-based, murine; details: RAW 264.7; 75 μM fatty acid
Protocol: as §1
Preparation of fatty acids-albumin complexes—All fatty acids were solubilized in ethanol, and then combined with fatty acid-free and low-endotoxin BSA at a molar ratio of 10:1 (fatty acid: albumin) in serum-poor medium (0.25% FBS). Fatty acids-albumin complex solution was freshly prepared prior to each experiment.
Sodium dodecyl sulfate-polyacrylamide gel electrophoresis (SDS-PAGE) and immunoblotting—These procedures were performed as previously described in D. Hwang et al., “Expression of mitogen-inducible cyclooxygenase induced by lipopolysaccharide: mediation through both mitogen-activated protein kinase and NF-kappaB signaling pathways in macrophages,” Biochem. Pharmacol., vol. 54, pp. 87-96 (1997). Briefly, solubilized proteins were subjected to 8% SDS-PAGE for COX-2, iNOS, IL- 1α and GAPDH immunoblot analyses. Following electrophoresis, the gel was transferred to a PVDF membrane and the membrane was blocked to prevent non-specific binding of antibodies in TBS-T [20 mM Tris HCl, 137 mM NaCl, 0.05% (v/v) Tween 20, pH 7.6] containing 5% non-fat dried milk (Carnation). Immunoblotting was performed using respective polyclonal antibodies followed by incubation with anti-rabbit IgG coupled to horseradish peroxidase. The membrane was exposed on an X-ray film (Kodak) using ECL western blot detection reagents (Amersham).
After 11 h, cell lysates were analyzed by COX-2, iNOS, IL-1α, or GAPDH immunoblot using a Western blot analysis.
The cell lysates were analyzed by COX-2 or GAPDH immunoblot.
RAW 264.7 cells were pretested with various concentrations (5, 10, 20, and 50 μM) of docosahexaenoic acid (C22:6n-3) for 3 hours, and then stimulated with LPS (100 ng/ml) for 8 hours and analyzed by COX-2, iNOS, IL-1 a or GAPDH immunoblot.
Cells stably transfected with NFκB(5×) or COX-2 promoter reporter genes were pretreated with various concentrations of each fatty acid for 3 hrs. Cells were then treated with LPS (200 ng/ml). After 8 hrs, cell lysates were prepared and luciferase activities were determined. Data are expressed as a percentage of LPS treatment alone. The results for NFκB and COX-2 expression are given in FIGS. 8A and 8B, respectively. The values are mean±SEM (n=3) of RLA, relative luciferase activity. In FIG. 8C, the cells were pretreated with DHA (20 μM) or C12:0 (75 μM) for 3 hrs and further stimulated with LPS (200 ng/ml for DHA; 1 ng/ml for C12:0). After 8 hr, cell lysates were analyzed by COX-2 and actin immunoblotting.

COX-2 promoter = COX-2 promoter luciferase reporter gene assay, transiently transfected RAW 264.7 cells; assay type: cell-based, murine
Text: Plasmids and DNA Constructs—All plasmids and constructs were obtained or made as reported in either S. H. Rhee and D. Hwang, “Murine TOLL-like receptor 4 confers lipopolysaccaride responsiveness as determined by activation of NFκB and expression of the inducible cyclooxygenase,” Journal of Biological Chemistry, vol. 275, pp. 34035-34040 (2000); and J. Y. Lee et al., “Saturated fatty acids, but not unsaturated fatty acids, induce the expression of cyclooxygenase-2 mediated through TOLL-like receptor 4,” Journal of Biological Chemistry, vol. 276, pp. 16683-16689 (2001). Briefly, the luciferase reporter plasmids (pGL2) containing the promoter region of the murine COX-2 gene (−3201/+93 or −1017/+93) were provided by David Dewitt (Michigan State University, East Lansing, Mich.). To prepare the wild-type COX-2 promoter fragment, polymerase chain reaction (PCR) was performed with the primers named Kpn-COX2-For and Hind-COX2-Rev using the murine COX-2 (−1017/+93) luciferase reporter plasmid as a template. To prepare the mutant COX-2 promoter fragment containing mutated NFκB site, Kpn-COX2-Fmut and Hind-COX2-Rev were used as primers. Each PCR fragment was inserted into the KpnI and HindIII sites of pGL2 to generate the wild-type or mutant COX-2 (−410/+86) luciferase reporter constructs, respectively. Sequences for wild-type NFκB site and the primers were used as reported elsewhere. (See Lee et al., 2001). The 2×NFκB-luciferase reporter construct was a gift from Frank Mercurio (Signal Pharmaceuticals, San Diego, Calif.). HSP70-β-galactosidase reporter plasmid was a gift from Robert Modlin (University of California, Los Angeles, Calif.). The expression plasmids for a constitutively active form of TLR4 (DTLR4) and a dominant-negative mutant, DTLR4 (P712H) were prepared as previously described. See S. H. Rhee et al., 2000. The expression plasmid of the wild-type NFκB-inducing kinase (NIK), pRK-NIK(wt) was a gift from Mike Rothe (Tularik, South San Francisco, Calif.). The dominant-negative mutant of inhibitor kB (pCMV4-IkBa(DN)) was provided by Dean Ballard (Vanderbilt University, Nashville, Tenn.). 4×NFκB-luciferase reporter construct was purchased from Clontech (Palo Alto, Calif.) and used for transient transfection. Heat shock protein 70 (HSP70)-β-galactosidase reporter plasmid was from Robert Modlin (University of Calif., Los Angeles, Calif.). The expression plasmids for a wild-type TLR2 and a dominant-negative mutant [TLR2 (P681H)] were from C. B. Wilson (University of Washington, Seattle, Wash.). Constitutively active chimeric CD4-TLR4 was obtained from C. A. Janeway, Jr. (Yale University, New Haven, Conn.). The constitutively active form of MyD88 (MyD88(ΔToll)) and the dominant-negative mutant, MyD88(ΔDD) were kindly provided by Jurg Tschopp (University of Lausanne, Switzerland). The dominant-negative mutant of mouse PPARg [pCMX-PPARg(L466A/L467A)] was a gift from Ira Schulman (Ligand Pharmaceuticals, San Diego, Calif.). All DNA constructs were prepared in large scale using the EndoFree Plasmid Maxi kit (Qiagen, Chatsworth, Calif.) for transfection.
Transient transfection and luciferase assay—These procedures were performed as described in S. H. Rhee et al., “Murine TOLL-like receptor 4 confers lipopolysaccharide responsiveness as determined by activation of NFκB and expression of the inducible cyclooxygenase,” J. Biol. Chem., vol. 275, pp. 34035-34040 (2000); and J. H. Paik et al., “Two opposing effects of non-steroidal anti-inflammatory drugs on the expression of the inducible cyclooxygenase, Mediation through different signaling pathways,” J. Biol. Chem., vol. 275, pp. 28173-28179 (2000). Briefly, RAW 264.7 cells were plated in 6-well plates (5×10^5 cells/well) and transfected with luciferase reporter plasmids and HSP70-β-galactosidase plasmid as an internal control using SuperFect transfect reagent (Quiagen) according to the manufacturer's instructions. […]

TLR2 = target: T2, TLR2 (Homo sapiens, UniProt O60603); assay: NFκB reporter in TLR2-transfected 293T cells; assay type: cell-based; details: PamCAG 1 μg/ml, 18 hr
T2 construct: expressed in transfected cells; host or cells: 293T (stated not to express TLR2)
T2 sequence (O60603 21-784, species assumed): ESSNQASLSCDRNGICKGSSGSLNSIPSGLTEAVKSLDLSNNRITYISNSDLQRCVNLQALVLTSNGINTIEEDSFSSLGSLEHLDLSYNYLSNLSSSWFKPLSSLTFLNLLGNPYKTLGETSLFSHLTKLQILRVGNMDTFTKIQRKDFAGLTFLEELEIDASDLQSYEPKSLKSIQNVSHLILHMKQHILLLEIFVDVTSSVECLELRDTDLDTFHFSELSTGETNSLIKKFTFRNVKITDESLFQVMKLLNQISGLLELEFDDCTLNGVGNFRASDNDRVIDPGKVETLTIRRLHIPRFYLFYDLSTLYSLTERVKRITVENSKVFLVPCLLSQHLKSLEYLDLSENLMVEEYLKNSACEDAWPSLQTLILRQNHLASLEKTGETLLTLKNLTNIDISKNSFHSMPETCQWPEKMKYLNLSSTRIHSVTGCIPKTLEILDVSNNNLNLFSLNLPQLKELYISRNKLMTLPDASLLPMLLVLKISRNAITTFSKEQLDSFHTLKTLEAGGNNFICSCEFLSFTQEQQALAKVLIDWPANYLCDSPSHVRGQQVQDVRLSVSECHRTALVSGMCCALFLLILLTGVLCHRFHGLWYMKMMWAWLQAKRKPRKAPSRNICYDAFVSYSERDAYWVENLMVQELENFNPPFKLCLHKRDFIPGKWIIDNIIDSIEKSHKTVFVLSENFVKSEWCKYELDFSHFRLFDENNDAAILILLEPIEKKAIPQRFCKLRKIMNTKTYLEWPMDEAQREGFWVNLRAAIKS
Text: Plasmids and DNA Constructs—All plasmids and constructs were obtained or made as reported in either S. H. Rhee and D. Hwang, “Murine TOLL-like receptor 4 confers lipopolysaccaride responsiveness as determined by activation of NFκB and expression of the inducible cyclooxygenase,” Journal of Biological Chemistry, vol. 275, pp. 34035-34040 (2000); and J. Y. Lee et al., “Saturated fatty acids, but not unsaturated fatty acids, induce the expression of cyclooxygenase-2 mediated through TOLL-like receptor 4,” Journal of Biological Chemistry, vol. 276, pp. 16683-16689 (2001). Briefly, the luciferase reporter plasmids (pGL2) containing the promoter region of the murine COX-2 gene (−3201/+93 or −1017/+93) were provided by David Dewitt (Michigan State University, East Lansing, Mich.). To prepare the wild-type COX-2 promoter fragment, polymerase chain reaction (PCR) was performed with the primers named Kpn-COX2-For and Hind-COX2-Rev using the murine COX-2 (−1017/+93) luciferase reporter plasmid as a template. To prepare the mutant COX-2 promoter fragment containing mutated NFκB site, Kpn-COX2-Fmut and Hind-COX2-Rev were used as primers. […]
Acylation by saturated fatty acids of bacterial lipopeptides is also required for the activation of TLR2. […] After 18 hr, luciferase activities were determined. […]

NFκB = NFκB luciferase reporter gene assay, transiently transfected RAW 264.7 cells; assay type: cell-based, murine; details: PamCAG 1 μg/ml, 18 hr

Molecule | effect on COX-2 (inhibition) (COX-2) | COX-2 expression induced by fatty acid (immunoblot) (COX-2 expression [2]) | also measured
CCCCCCCCCCCCCCCCCC(=O)O [stearic acid] | No effect |  | 
CC/C=C\C/C=C\C/C=C\C/C=C\C/C=C\C/C=C\CCC(=O)O [docosahexaenoic acid] |  |  | effect on NFκB activation induced by MyD88 (MyD88(CA)): does not inhibit; effect on TNFα-induced COX-2 expression (immunoblot) (COX-2 expression [1]): failed to inhibit
CCCCCCCC/C=C\CCCCCCCC(=O)O [oleic acid] | no effect | unable to induce COX-2 expression | 
CCCCCCCCCCCCCC(=O)O [myristic acid] | No effect |  | 
CCCCCCCCCCCCCCCC(=O)O [palmitic acid] | No effect |  | COX-2 expression induced by saturated fatty acids (relative luciferase activity) (COX-2 promoter; saturated fatty acids C8:0-C18:0, 75 μM each, 24 hr): most potent in inducing COX-2 expression
CCCCC/C=C\C/C=C\CCCCCCCC(=O)O [linoleic acid] | not as effective | unable to induce COX-2 expression | 
CCCCCC/C=C/C=C\CCCCCCCC(=O)O [conjugated linoleic acid, 9(Z), 11(E)-octadecadienoic acid] |  | unable to induce COX-2 expression | 
CCCCC/C=C\C/C=C\C/C=C\C/C=C\CCCC(=O)O [arachidonic acid] |  | unable to induce COX-2 expression | 
palmitoyl-Cys((RS)-2,3-di(palmitoyloxy)-propyl)-Ala-Gly-OH [PamCAG] |  |  | TLR2 activation as determined by NFκB activation (TLR2): activated TLR2; NFκB activation (endogenous TLR2) (NFκB): induced; expression of COX-2 (endogenous TLR2) (COX-2 promoter; RAW 264.7, PamCAG 1 μg/ml, 18 hr): induced
CCCCCCCCCCCCCCC(=O)O [pentadecanoic acid] | No effect |  | 
CC/C=C\C/C=C\C/C=C\CCCCCCCC(=O)O [α-LA, α-linolenic acid] | Inhibitory effects |  | 

Reference: patent US20030032674A1, “Use of unsaturated fatty acids to treat severe inflammatory diseases” (priority 2001, published 2003)
